Results: ChEMBL document CHEMBL1141809, “Antioxidative phenolic glycosides from sage (Salvia officinalis)” (J Nat Prod, 1999)
pIC50: −log10 of the molar value.

Assays:
[1] = test system: Radical scavenging activity; experiment: Antioxidant activity assessed as DPPH radical scavenging activity after 0.5 hrs; assay type: functional
[2] = Antioxidant activity assessed as trolox equivalent of ABTS radical scavenging activity in aqueous phase by metmyoglobin assay; assay type: functional

| Structure (SMILES) | pIC50 [1] | Activity [2] |
| --- | --- | --- |
| O=C(/C=C/c1ccc(O)c(O)c1)O[C@H]1O[C@@H](CO[C@H]2OC[C@@](O)(CO)[C@@H]2O)[C@H](O)[C@@H](O)[C@@H]1O | 4.70 | 3.86 |
| O=C(/C=C/c1ccc(O)c(O)c1)OC[C@H]1O[C@H](O[C@]2(CO)O[C@H](CO)[C@@H](O)[C@@H]2O)[C@H](O)[C@@H](O)[C@@H]1O | 4.70 | 3.7 |
